# Assay results: US10674755B2, “Organic Compounds” (GIVAUDAN SA, priority 2013, dated 2020)
# Experiments:
# [1] = Mango-flavoured beverage taste evaluation by a panel of experienced tasters; details: 0.5 ppm dosed to mango drink (mango flavour 0.05% w/w, mango juice 0.18% w/w, sugar 8% w/w, citric acid 0.1% w/w)
# Method: A mango-flavoured beverage was prepared using a standard mango flavour (0.05% w/w), mango juice (0.18% w/w), sugar (8% w/w) and citric acid (0.1% w/w).
# [2] = Beef bouillon taste evaluation by a panel of experienced tasters
# Method: A beef bouillon was prepared using bouillon cubes obtained from a local supermarket.
# [3] = 40 ppb added to beef bouillon from bouillon cubes
# [4] = 0.5 ppm dosed to beef bouillon from bouillon cubes
Compound,taste of the mango drink versus the reference drink (panel agreement) [1],"taste of the bouillon versus the reference (panel agreement) [2, 3]","taste of the bouillon versus the reference (panel agreement) [2, 4]"
"CCCCCCCC/C=C\CCCCCCCC(=O)NCCCSC [Example 2, N-(3-(methylthio)propyl)oleamide]",tasted more tropical and more juicy than the reference drink,,
"CC/C=C\C/C=C\C/C=C\CCCCCCCC(=O)NCCO [Example 8, N-(2-hydroxyethyl)linolenamide]",,"tasted more fatty, and slightly more salty than the reference",
"CCCCCCCC/C=C\CCCCCCCC(=O)NCCC(C)C [Example 4, N-isopentyloleamide]",tasted somewhat more astringent and fruity and had more body,,
"CCCCC/C=C\C/C=C\C/C=C\C/C=C\CCCC(=O)NCCO [Example 10, N-(2-hydroxyethyl)arachidonamide]",,"tasted saltier, sweeter, more fatty and slightly more umami than the reference, and had more mouthfeel",had more mouthfeel and tasted more salty and more umami than the reference
"CCCCCCCCCCCCCCCCCCCC(=O)NCCO [Example 9, N-(2-hydroxyethyl)eicosanamide]",,"tasted more fatty, beefier and smoky, tasted more fully and had more body than the reference",
"CCCCCCCC/C=C\CCCCCCCC(=O)NCCCC(N)=O [Example 6, N-(4-amino-4-oxobutyl)oleamide]",,,tasted more full and had more mouthfeel than the reference
